Columns and labels:
[1] = tested on: Human Hepatocytes; assay: In Vitro Hepatocyte Stability Assay (Assay 4); format: in vitro ADME; settings: predicted blood clearance as percent of hepatic blood flow
Experimental: In Vitro Hepatocyte Stability Assay (Assay 4)
The metabolic degradation of test compounds was assayed in a hepatocyte suspension. Cryopreserved hepatocytes were incubated in an appropriate buffer system (e.g., Dulbecco's modified eagle medium plus 3.5 μg glucagon/500 mL, 2.5 mg insulin/500 mL and 3.75 mg/500 mL hydrocortison) containing 5% species serum. Following a 30 min preincubation in an incubator (37° C., 10% CO2), 5 μl of test compound solution (80 μM; from 2 mM in DMSO stock solution diluted 1:25 with medium) were added into 395 μl hepatocyte suspension (cell density in the range 0.25−5×10^6 cells/mL, typically 1×10^6 cells/mL; final concentration of test compound final DMSO concentration […]).
The cells were incubated for six h (incubator, orbital shaker) and samples (25 μl) were taken at 0, 0.5, 1, 2, 4 and 6 h. Samples were transferred into acetonitrile and pelleted by centrifugation (5 min). The supernatant was transferred to a new 96 DeepWell™ plate, evaporated under nitrogen and resuspended. Decline of compound was analyzed by HPLC-MS/MS. CLint (in vitro hepatic intrinsic clearance) was calculated as follows: CLint=Dose/AUC=(C0/CD)/(AUD+Clast/k)×1000/60
C0: initial concentration in the incubation [μM];
CD: cell density of vital cells [cells/mL];
AUD: area under the data [μM×h];
Clast: concentration of last data point [μM];
k: slope of the regression line for compound decline [h^−1].
The calculated in vitro hepatic intrinsic clearance was scaled up to the intrinsic in vivo hepatic clearance (Clint in vivo) and used to predict hepatic in vivo blood clearance (CL) by the use of a liver model (well-stirred model), as follows: CLint,in vivo[mL/min/kg]=(CLint[μL/min/10^6 cells]×hepatocellularity[10^6 cells/g liver]×liver factor [g/kg body weight])/1000 CL[mL/min/kg]=CLint,to vivo×hepatic blood flow[ml/min/kg]/(CLint,in vivo[ml/min/kg]+hepatic blood flow[mL/min/kg])
The in vivo blood clearance was transformed into percent of the hepatic blood flow (% Qh): % Qh=CL[mL/min/kg]/hepatic blood flow[mL/min/kg])×100
Hepatocellularity, human: 1.2×10^7 cells/g liver;
Liver factor, human: 25.7 g/kg body weight;
Hepatic blood flow, human: 21 mL/(min×kg).

[2] = tested on: brain amyloid peptides Aβ1-x; assay: Rat Brain Aβ Lowering Assay (Assay 5); format: in vivo; settings: 3 hrs after dosing
Experimental: Rat Brain Aβ Lowering Assay (Assay 5)
The animals were sacrificed 3 hrs after dosing, and brains were excised, dissected into cerebellum and left and right cerebra and flash-frozen in liquid nitrogen.
The cerebrum was homogenized (5 volumes per weight) in 20 mM Tris-HCL, pH 8.5, 0.2% Triton-X100 supplemented with protease inhibitors (cOmplete, Roche Applied Science) at 4° C. using a glass Dounce homogenizer. The homogenate was centrifuged at 120,000×g for 60 min at 4° C., and the supernatant was collected and analyzed for […] using immunoassay with chemiluminescent detection (Meso-Scale Discovery, Rockville, Md. (MSD)).
Streptavidin 96-well plates (MSD) were pre-blocked with 5% Blocker A solution (MSD) for 1 hr at rt on an orbital shaker and washed 4 times with phosphate buffered saline (PBS). The wells were pre-coated with 20 ng/well of biotinylated antibody SIG-39155 (Clone M3.2, specific for amino acids 10-15 of the rodent Aβ) for 1 hr at rt and washed 4 times with PBS. For Aβ1-x analysis, 25 μl of either the cleared brain lysates or Aβ1-40 standards (8-500 pg/ml, with 2× increment) were incubated for 1 hr at rt with constant shaking. The wells were washed 4 times with PBS, and 25 μl of the detection antibody (Sulfo-TAG labeled anti-Aβ40 antibody supplied by MSD) was added and incubated for 1 hr at rt. After 4 washes with PBS, 150 μl of the chemiluminescence detection reagent (Read Buffer T, MSD) was added, and the plate was read on an MSD Sector Imager 6000 instrument. The calibration curve was fit into a non-linear four-parameter regression model, and the Aβ1-x concentrations were calculated for each well containing the cleared brain lysates. The percent of Aβ lowering was calculated based on the difference with the average Aβ concentration obtained for the brains from the animals treated with vehicle alone.

Structure (SMILES) | In vitro Human Hepatocytes % Qh @ 1 μM (assay 4) [1] [% Qh] | % Aβ Reduction ([2]; single oral dose 25 mg/kg) [%] | % Aβ Reduction ([2]; single oral dose 12.5 mg/kg) [%]
C[C@@H]1C[C@@]2(Cc3ccc(C#N)cc3[C@]23N=C(N)N(CCC(F)(F)F)C3=O)C[C@H](C)[C@H]1O [Example 1] | 0 | 25 | –
C[C@@H]1C[C@@]2(Cc3ccc(C#N)cc3[C@]23N=C(N)N(CC(C)(C)F)C3=O)C[C@H](C)[C@H]1O [Example 2] | 1.6 | – | 40
C[C@@H]1C[C@@]2(Cc3ccc(C#N)cc3[C@]23N=C(N)N(CC2(F)CCOCC2)C3=O)C[C@H](C)[C@H]1O [Example 4] | 6.1 | – | 21
CC[C@@H]1C[C@@]2(Cc3ccc(C#N)cc3[C@]23N=C(N)N(CC(C)(C)F)C3=O)C[C@H](C)[C@H]1O [Example 7] | 13 | 58 | –
CC[C@@H]1C[C@]2(CC[C@H]1O)Cc1ccc(C#N)cc1[C@]21N=C(N)N(CC(C)(C)F)C1=O [Example 9] | 12.4 | 42 | –
